Numbered stars: 1 amine (or outer) side, 2 acyl side, 3 side chain; on linkers, the order of the positions; unused ones are H or OH. Bridge positions count the residues as written; N and C are the ends. Square brackets hold non-standard residues; d marks the D form. Peptide text beside a SMILES is read from it. I, II: the chains in the order shown. Phe(3,4-Cl2) = N[C@@H](Cc1ccc(Cl)c(Cl)c1)C(=O)O; 2Nal = N[C@@H](Cc1ccc2ccccc2c1)C(=O)O; Diglycolyl = O=C(COCC(=O)[*:2])[*:1]; NMeR = CN[C@@H](CCCNC(=N)N)C(=O)O; hPhe = N[C@@H](CCc1ccccc1)C(=O)O; Tic = O=C(O)[C@@H]1Cc2ccccc2CN1; NMeK = CN[C@@H](CCCCN)C(=O)O; Pen = CC(C)(S)[C@H](N)C(=O)O; dNMeK = CN[C@H](CCCCN)C(=O)O Bounds are passed on as bounds.

One data set addresses T1, rh integrin α4β7 (Homo sapiens, UniProt P13612+P26010).
T1 construct: purchased R&D Systems 5397-A30
Description: α4β7-MAdCAM Competition ELISA. Type of data set: binding. To be noted: Table 3-B, Potency (α4β7); range classes; read-out: α4β7 ELISA IC50. On the procedure:
A nickel coated plate (Pierce #15442) was coated with rh integrin α4β7 (R&D Systems #5397-A30) at 800 ng/well and incubated at room temperature with shaking for 1 hr. The solution was then removed by shaking and blocked with assay buffer (50 mM Tris-HCl pH7.6, 150 mM NaCl, 1 mM MnCl2 or MgCl2, 0.05% Tween-20 and 0.5% BSA) at 250 ul/well. The plate was then incubated at room temperature for 1 hr. Each well was washed 3 times with wash buffer (50 mM Tris-HCl pH7.6, 100 mM NaCl, 1 mM MnCl2 or MgCl2, 0.05% Tween-20). To each well was added 25 ul of a serial dilution (3-fold dilutions in assay buffer) of peptide starting at 20 μM. 25 ul of recombinant human MAdCAM-1 (R&D Systems #6056-MC) was then added to each well at a fixed concentration 20 nM. The final starting peptide concentration was 10 μM, and the final MAdCAM-1 concentration was 10 nM. The plates were then incubated at room temperature for 1 hr to reach binding equilibrium. The wells were then washed three times with wash buffer. 50 ul of mouse anti-human IgG1-HRP (Invitrogen # A10648) diluted in 1:2000 in assay buffer was then added to each well. The wells were incubated at room temperature for 45 min with shaking. The wells were then washed 3 times with wash buffer. 100 ul of 3,3′,5,5′-Tetramethylbenzidine (TMB) were then added to each well and closely observe during development time. The reaction was stopped with 2N H2SO4 and absorbance was read at 450 nm.
TMB is a chromogenic substrate suitable for use in ELISA procedures, which utilize horseradish peroxidase conjugates. This substrate produces a soluble end product that is blue in color and can be read spectrophotometrically at 370 or 655 nm. The reaction maybe stopped with 2 M H2S04, resulting in a yellow solution that is read at 450 nm. Each tablet contains 1 mg of TMB substrate. To prepare TMB Substrate Solution, dissolve one 3,3′,5,5′-tetramethylbenzidine tablet in 1 ml of DMSO and add to 9 ml of 0.05 M Phosphate-Citrate Buffer, pH 5.0. Add 2 μl of fresh 30% hydrogen peroxide (Product No. H 1009) per 10 ml of substrate buffer solution, immediately prior to use.
(In general: ELISA stands for enzyme-linked immunosorbent assay.)

For another data set, the target named is α4β7 (Homo sapiens, UniProt P13612+P26010). Description: α4β7-MAdCAM Cell Adhesion Assay (RPMI 8866 human cells). Type of data set: cell-based. More on the design: host or cells: RPMI 8866 human B lymphoblastoid cells. To be noted: Table 3-B, Potency (α4β7); range classes; read-out: α4β7 cell (Hu) IC50. Summed up:
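Adhesion read-out: MTT absorbance at 570 nm minus no-cell wells, after three washes. Plates coated with rh MAdCAM-1/Fc received peptide dilutions plus 200,000 RPMI 8866 cells in Mn2+ (1 mM)-supplemented DMEM, 0.1% BSA, HEPES pH 7, incubated 30-45 min, 37 °C.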

The nature of data set [1]: Simulated Intestinal Fluid (SIF) Stability Assay. In kind it is in vitro ADME, porcine. To be noted: pig, simulated intestinal fluid (SIF) with 1% porcine pancreatin, pH 6.5, Table 3-B; > means experiment was stopped at that time and half life was not reached; read-out: Stabilty SIF t1/2. Summed up:
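Intestinal stability: percent peptide remaining over time, by LC-MS/MS peak-area ratio to internal standard, fitted to first-order decay for half-life. Conditions: 22 μM peptide, 1% pancreatin in pH 6.5 blank FASSIF, 37 °C.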

T1 sequence (P13612 34-977 limits assumed): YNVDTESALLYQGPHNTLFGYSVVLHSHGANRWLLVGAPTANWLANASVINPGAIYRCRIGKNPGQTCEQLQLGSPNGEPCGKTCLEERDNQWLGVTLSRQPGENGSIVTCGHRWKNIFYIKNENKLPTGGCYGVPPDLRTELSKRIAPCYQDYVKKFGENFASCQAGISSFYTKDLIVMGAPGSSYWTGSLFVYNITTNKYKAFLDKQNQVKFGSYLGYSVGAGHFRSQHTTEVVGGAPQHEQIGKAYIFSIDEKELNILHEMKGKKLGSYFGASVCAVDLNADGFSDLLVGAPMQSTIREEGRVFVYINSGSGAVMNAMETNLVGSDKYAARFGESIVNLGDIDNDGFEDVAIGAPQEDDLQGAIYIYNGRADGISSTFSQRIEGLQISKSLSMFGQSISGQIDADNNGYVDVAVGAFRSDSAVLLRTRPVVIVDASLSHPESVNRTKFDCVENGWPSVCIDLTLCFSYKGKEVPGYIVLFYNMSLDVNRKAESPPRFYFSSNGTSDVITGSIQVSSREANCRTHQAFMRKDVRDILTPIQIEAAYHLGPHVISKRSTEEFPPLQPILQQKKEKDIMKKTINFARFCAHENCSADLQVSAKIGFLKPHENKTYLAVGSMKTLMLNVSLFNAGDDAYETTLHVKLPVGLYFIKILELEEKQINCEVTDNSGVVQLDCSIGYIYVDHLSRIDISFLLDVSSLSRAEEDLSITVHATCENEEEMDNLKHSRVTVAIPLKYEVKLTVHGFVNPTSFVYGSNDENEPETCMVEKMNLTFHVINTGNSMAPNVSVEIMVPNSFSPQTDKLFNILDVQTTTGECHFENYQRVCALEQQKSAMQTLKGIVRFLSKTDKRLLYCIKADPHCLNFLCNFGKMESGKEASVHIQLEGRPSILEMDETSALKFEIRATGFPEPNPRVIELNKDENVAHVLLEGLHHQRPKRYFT
T1 sequence (P26010 20-723 limits assumed): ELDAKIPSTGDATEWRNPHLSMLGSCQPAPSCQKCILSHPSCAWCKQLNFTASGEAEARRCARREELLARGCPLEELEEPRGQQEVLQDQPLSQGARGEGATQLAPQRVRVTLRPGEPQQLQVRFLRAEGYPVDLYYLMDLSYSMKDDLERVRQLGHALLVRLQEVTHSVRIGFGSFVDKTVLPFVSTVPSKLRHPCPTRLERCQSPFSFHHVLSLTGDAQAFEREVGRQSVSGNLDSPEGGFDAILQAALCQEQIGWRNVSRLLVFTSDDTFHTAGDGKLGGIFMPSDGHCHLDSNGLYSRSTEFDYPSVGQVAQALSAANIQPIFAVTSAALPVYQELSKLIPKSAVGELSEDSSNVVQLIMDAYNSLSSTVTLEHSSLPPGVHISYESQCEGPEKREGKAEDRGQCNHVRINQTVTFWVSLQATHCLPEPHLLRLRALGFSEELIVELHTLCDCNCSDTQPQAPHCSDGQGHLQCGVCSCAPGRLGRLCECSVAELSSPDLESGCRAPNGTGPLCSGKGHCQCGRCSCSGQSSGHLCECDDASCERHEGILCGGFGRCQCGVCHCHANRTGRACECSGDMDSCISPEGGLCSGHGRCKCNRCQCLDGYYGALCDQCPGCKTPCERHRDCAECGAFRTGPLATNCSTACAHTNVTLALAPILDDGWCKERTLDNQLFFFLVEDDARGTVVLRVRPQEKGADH
α4β7, sequence (P13612 34-1032): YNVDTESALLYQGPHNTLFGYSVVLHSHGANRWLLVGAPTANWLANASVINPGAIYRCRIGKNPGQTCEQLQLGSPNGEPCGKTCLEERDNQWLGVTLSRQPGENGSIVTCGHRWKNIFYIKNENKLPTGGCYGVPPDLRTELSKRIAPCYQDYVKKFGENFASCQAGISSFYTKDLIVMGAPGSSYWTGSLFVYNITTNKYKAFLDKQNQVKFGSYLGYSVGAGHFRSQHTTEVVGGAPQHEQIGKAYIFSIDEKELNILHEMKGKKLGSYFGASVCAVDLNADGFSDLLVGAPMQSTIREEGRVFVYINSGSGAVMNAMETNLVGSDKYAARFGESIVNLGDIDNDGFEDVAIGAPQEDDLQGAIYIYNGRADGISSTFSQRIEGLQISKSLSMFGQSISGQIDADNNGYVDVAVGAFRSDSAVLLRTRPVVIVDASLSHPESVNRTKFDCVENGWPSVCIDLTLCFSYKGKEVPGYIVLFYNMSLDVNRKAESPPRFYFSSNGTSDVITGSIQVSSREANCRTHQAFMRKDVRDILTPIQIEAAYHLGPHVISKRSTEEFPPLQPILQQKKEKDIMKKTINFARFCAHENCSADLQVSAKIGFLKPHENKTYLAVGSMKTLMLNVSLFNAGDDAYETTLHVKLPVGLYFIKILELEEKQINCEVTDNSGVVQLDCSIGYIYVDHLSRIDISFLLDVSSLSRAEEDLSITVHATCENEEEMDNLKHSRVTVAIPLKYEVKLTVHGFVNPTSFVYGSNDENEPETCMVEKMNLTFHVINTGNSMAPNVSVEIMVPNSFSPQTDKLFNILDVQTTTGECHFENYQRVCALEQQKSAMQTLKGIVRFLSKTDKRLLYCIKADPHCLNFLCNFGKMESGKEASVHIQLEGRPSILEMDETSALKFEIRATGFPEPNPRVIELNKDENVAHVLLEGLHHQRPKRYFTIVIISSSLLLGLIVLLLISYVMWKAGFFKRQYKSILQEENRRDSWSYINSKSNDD
α4β7, sequence (P26010 20-798): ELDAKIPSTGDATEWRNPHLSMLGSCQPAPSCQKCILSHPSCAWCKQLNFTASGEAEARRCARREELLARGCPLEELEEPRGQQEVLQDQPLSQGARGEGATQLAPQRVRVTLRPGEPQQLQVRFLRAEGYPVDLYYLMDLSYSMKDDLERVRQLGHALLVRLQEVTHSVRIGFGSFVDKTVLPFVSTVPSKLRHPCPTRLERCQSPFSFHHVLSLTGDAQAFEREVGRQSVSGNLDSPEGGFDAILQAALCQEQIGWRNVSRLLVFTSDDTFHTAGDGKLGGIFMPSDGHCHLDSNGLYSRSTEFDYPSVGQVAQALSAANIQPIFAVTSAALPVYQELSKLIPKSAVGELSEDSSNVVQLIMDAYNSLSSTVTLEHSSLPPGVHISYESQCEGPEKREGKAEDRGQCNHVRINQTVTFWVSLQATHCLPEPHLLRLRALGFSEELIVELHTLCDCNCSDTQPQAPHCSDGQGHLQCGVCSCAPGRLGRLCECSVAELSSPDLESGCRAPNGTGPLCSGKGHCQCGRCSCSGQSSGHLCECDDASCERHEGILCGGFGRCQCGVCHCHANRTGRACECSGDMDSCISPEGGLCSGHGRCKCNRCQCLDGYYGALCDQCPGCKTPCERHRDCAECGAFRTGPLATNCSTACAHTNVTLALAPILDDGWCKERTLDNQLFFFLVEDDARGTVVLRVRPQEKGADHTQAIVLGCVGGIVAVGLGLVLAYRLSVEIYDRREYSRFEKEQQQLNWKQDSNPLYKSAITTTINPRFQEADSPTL

In the case of `CC(=O)N[C@@H]1C(=O)N(C)[C@@H](CCCNC(=N)N)C(=O)N[C@@H](CO)C(=O)N[C@@H](CC(=O)O)C(=O)N[C@@H]([C@@H](C)O)C(=O)N[C@@H](CC(C)C)C(=O)N[C@H](C(=O)N[C@@H](Cc2ccc3ccccc3c2)C(=O)N[C@H](CCC(=O)O)C(=O)N[C@H](CCCCN)C(N)=O)C(C)(C)SSC1(C)C` [compound 9] (Ac-[Pen][NMeR]SDTL[Pen][2Nal][dE][dK]-NH2; disulfide 1-7), the IC50 – broadly, the midpoint of a concentration-inhibition curve – at rh integrin α4β7 was 10 to 25 nM; at α4β7 it was 100 to 500 nM.

On to `CC(=O)N[C@@H]1C(=O)N(C)[C@@H](CCCNC(=N)N)C(=O)N[C@@H](CO)C(=O)N[C@@H](CC(=O)O)C(=O)N[C@@H]([C@@H](C)O)C(=O)N[C@@H](CC(C)C)C(=O)N[C@H](C(=O)N[C@@H](Cc2ccc3ccccc3c2)C(=O)N[C@H](CCC(=O)O)C(=O)N(C)[C@H](CCCCN)C(N)=O)C(C)(C)SSC1(C)C` [compound 13] (Ac-[Pen][NMeR]SDTL[Pen][2Nal][dE][dNMeK]-NH2; disulfide 1-7), for which the IC50 lay in the range of 10 to 25 nM on rh integrin α4β7 and 100 to 500 nM on α4β7.

Take `CC(=O)N[C@@H]1C(=O)N(C)[C@@H](CCCNC(=N)N)C(=O)N[C@@H](CO)C(=O)N[C@@H](CC(=O)O)C(=O)N[C@@H]([C@@H](C)O)C(=O)N[C@@H](CC(C)C)C(=O)N[C@H](C(=O)N[C@@H](Cc2ccc(Cl)c(Cl)c2)C(=O)N[C@@H](CCC(=O)O)C(=O)N[C@H](CCCCN)C(N)=O)C(C)(C)SSC1(C)C` [compound 17] (Ac-[Pen][NMeR]SDTL[Pen][Phe(3,4-Cl2)]E[dK]-NH2; disulfide 1-7): at rh integrin α4β7, the IC50 lay within 10 to 25 nM.

Consider `CC(=O)N[C@@H]1C(=O)N(C)[C@@H](CCCNC(=N)N)C(=O)N[C@@H](CO)C(=O)N[C@@H](CC(=O)O)C(=O)N[C@@H]([C@@H](C)O)C(=O)N[C@@H](CC(C)C)C(=O)N[C@H](C(=O)N[C@@H](CCc2ccccc2)C(=O)N[C@@H](CCC(=O)O)C(=O)N[C@H](CCCCN)C(N)=O)C(C)(C)SSC1(C)C` [compound 19] (Ac-[Pen][NMeR]SDTL[Pen][hPhe]E[dK]-NH2; disulfide 1-7), for which the IC50 on rh integrin α4β7 is 10 to 25 nM.

For `CC(=O)N[C@@H]1C(=O)N(C)[C@@H](CCCNC(=N)N)C(=O)N[C@@H](CO)C(=O)N[C@@H](CC(=O)O)C(=O)N[C@@H]([C@@H](C)O)C(=O)N[C@@H](CC(C)C)C(=O)N[C@H](C(=O)N[C@@H](CCc2ccccc2)C(=O)N[C@H](CCC(=O)O)C(=O)N[C@H](CCCCNC(=O)COCC(=O)NCCCC[C@@H](NC(=O)[C@@H](CCC(=O)O)NC(=O)[C@H](CCc2ccccc2)NC(=O)[C@H]2NC(=O)[C@H](CC(C)C)NC(=O)[C@H]([C@@H](C)O)NC(=O)[C@H](CC(=O)O)NC(=O)[C@H](CO)NC(=O)[C@H](CCCNC(=N)N)N(C)C(=O)[C@@H](NC(C)=O)C(C)(C)SSC2(C)C)C(N)=O)C(N)=O)C(C)(C)SSC1(C)C` [compound 40] (I: Ac-[Pen][NMeR]SDTL[Pen][hPhe][dE][dK]-NH2 / II: Ac-[Pen][NMeR]SDTL[Pen][hPhe][dE][dK]-NH2; disulfide I:1-I:7, II:1-II:7; linker I:10-II:10 via Diglycolyl), the concentration for half-maximal inhibition (IC50) is less than 10 nM on rh integrin α4β7 and 100 to 500 nM on α4β7.

For `CC(=O)N[C@@H]1C(=O)N(C)[C@@H](CCCNC(=N)N)C(=O)N[C@@H](CO)C(=O)N[C@@H](CC(=O)O)C(=O)N[C@@H](CC(=O)O)C(=O)N[C@@H](CC(C)C)C(=O)N[C@H](C(=O)N[C@@H](Cc2c[nH]c3ccccc23)C(=O)N[C@@H](CCC(=O)O)C(=O)N[C@H](CCCCN)C(N)=O)C(C)(C)SSC1(C)C` [compound 46] (Ac-[Pen][NMeR]SDDL[Pen]WE[dK]-NH2; disulfide 1-7), at rh integrin α4β7, the IC50 was in the range of 1000 to 10000 nM. For the same molecule, the half-life at 22 μM in data set [1] was more than 3 h.

Consider `CC(=O)N[C@@H]1C(=O)N(C)[C@@H](CCCNC(=N)N)C(=O)N[C@H](CC(=O)O)C(=O)N[C@@H](CC(=O)O)C(=O)N[C@@H]([C@@H](C)O)C(=O)N[C@@H](CC(C)C)C(=O)N[C@H](C(=O)N[C@@H](Cc2c[nH]c3ccccc23)C(=O)N[C@@H](CCC(=O)O)C(=O)N[C@H](CCCCN)C(N)=O)C(C)(C)SSC1(C)C` [compound 48] (Ac-[Pen][NMeR][dD]DTL[Pen]WE[dK]-NH2; disulfide 1-7), for which the IC50 at rh integrin α4β7 fell in the range of 1000 to 10000 nM. Also, in data set [1], the half-life at 22 μM is more than 3 h.

In the case of `CC(=O)N[C@@H]1C(=O)N(C)[C@@H](CCCNC(=N)N)C(=O)N[C@@H](CO)C(=O)N[C@@H](CC(=O)O)C(=O)N[C@@H]([C@@H](C)O)C(=O)N[C@@H](CC(C)C)C(=O)N[C@H](C(=O)N[C@@H](Cc2c[nH]c3ccccc23)C(=O)N[C@@H](CCC(=O)O)C(=O)N2CCC[C@H]2C(=O)N[C@H](CCCCN)C(N)=O)C(C)(C)SSC1(C)C` [compound 49] (Ac-[Pen][NMeR]SDTL[Pen]WEP[dK]-NH2; disulfide 1-7), the IC50 on rh integrin α4β7 fell in the range of 10 to 25 nM. Also, the half-life at 22 μM in data set [1] is more than 3 h.

For the molecule `COC(=O)C[C@@H]1NC(=O)[C@H](CO)NC(=O)[C@H](CCCNC(=N)N)N(C)C(=O)[C@@H](NC(C)=O)C(C)(C)SSC(C)(C)[C@@H](C(=O)N[C@@H](Cc2c[nH]c3ccccc23)C(=O)N[C@@H](CCC(=O)O)C(=O)N[C@H](CCCCNC(=O)COCC(=O)NCCCC[C@@H](NC(=O)[C@H](CCC(=O)O)NC(=O)[C@H](Cc2c[nH]c3ccccc23)NC(=O)[C@H]2NC(=O)[C@H](CC(C)C)NC(=O)[C@H]([C@@H](C)O)NC(=O)[C@H](CC(=O)OC)NC(=O)[C@H](CO)NC(=O)[C@H](CCCNC(=N)N)N(C)C(=O)[C@@H](NC(C)=O)C(C)(C)SSC2(C)C)C(N)=O)C(N)=O)NC(=O)[C@H](CC(C)C)NC(=O)[C@H]([C@@H](C)O)NC1=O` [compound 73] (I: Ac-[Pen][NMeR]SD(OMe)TL[Pen]WE[dK]-NH2 / II: Ac-[Pen][NMeR]SD(OMe)TL[Pen]WE[dK]-NH2; disulfide I:1-I:7, II:1-II:7; linker I:10-II:10 via Diglycolyl), the IC50 at rh integrin α4β7 and at α4β7 was less than 10 nM throughout.

As for `CC(=O)N[C@@H]1C(=O)N(C)[C@@H](CCCNC(=N)N)C(=O)N[C@@H](CO)C(=O)N[C@@H](CC(=O)O)C(=O)N[C@@H]([C@@H](C)O)C(=O)N[C@@H](CC(C)C)C(=O)N[C@H](C(=O)N[C@@H](Cc2ccc3ccccc3c2)C(=O)N[C@H](CCCCN)C(N)=O)C(C)(C)SSC1(C)C` [compound 88] (Ac-[Pen][NMeR]SDTL[Pen][2Nal][dK]-NH2; disulfide 1-7), the IC50 at rh integrin α4β7 lay within 10 to 25 nM.

In the case of `CC(=O)N[C@@H]1C(=O)N(C)[C@@H](CCCNC(=N)N)C(=O)N[C@@H](CO)C(=O)N[C@@H](CC(=O)O)C(=O)N[C@@H]([C@@H](C)O)C(=O)N[C@@H](CC(C)C)C(=O)N[C@H](C(=O)N2Cc3ccccc3C[C@H]2C(=O)N[C@H](CCC(=O)O)C(=O)N[C@H](CCCCN)C(N)=O)CSSC1(C)C` [compound 89] (Ac-[Pen][NMeR]SDTLC[Tic][dE][dK]-NH2; disulfide 1-7), at rh integrin α4β7, the IC50 was 25 to 50 nM.

As to `CC(=O)N[C@@H]1C(=O)N(C)[C@@H](CCCNC(=N)N)C(=O)N[C@@H](CO)C(=O)N[C@@H](CC(=O)O)C(=O)N[C@@H]([C@@H](C)O)C(=O)N[C@@H](CC(C)C)C(=O)N[C@H](C(=O)N[C@@H](Cc2ccc3ccccc3c2)C(=O)N[C@@H](CCC(=O)O)C(=O)N(C)[C@@H](CCCCNC(=O)COCC(=O)NCCCC[C@@H](C(N)=O)N(C)C(=O)[C@H](CCC(=O)O)NC(=O)[C@H](Cc2ccc3ccccc3c2)NC(=O)[C@H]2NC(=O)[C@H](CC(C)C)NC(=O)[C@H]([C@@H](C)O)NC(=O)[C@H](CC(=O)O)NC(=O)[C@H](CO)NC(=O)[C@H](CCCNC(=N)N)N(C)C(=O)[C@@H](NC(C)=O)C(C)(C)SSC2(C)C)C(N)=O)C(C)(C)SSC1(C)C` [compound 138] (I: Ac-[Pen][NMeR]SDTL[Pen][2Nal]E[NMeK]-NH2 / II: Ac-[Pen][NMeR]SDTL[Pen][2Nal]E[NMeK]-NH2; disulfide I:1-I:7, II:1-II:7; linker I:10-II:10 via Diglycolyl), the IC50 at rh integrin α4β7 and on α4β7 was 10 to 25 nM each time.

Values taken from patent US9809623B2, “α4β7 peptide monomer and dimer antagonists” (Protagonist Therapeutics, Inc., priority 2014, dated 2017).
